{
  "source": "patent US9932331B2",
  "about": "“Phenyl tetrahydroisoquinoline compound substituted with heteroaryl” (TAISHO PHARMACEUTICAL CO., LTD, priority 2014, dated 2018)",
  "key": {"human NHE3": {"molecular_target": "T1, human NHE3 (Homo sapiens, UniProt P48764)", "T1 sequence (P48764 26-834)": "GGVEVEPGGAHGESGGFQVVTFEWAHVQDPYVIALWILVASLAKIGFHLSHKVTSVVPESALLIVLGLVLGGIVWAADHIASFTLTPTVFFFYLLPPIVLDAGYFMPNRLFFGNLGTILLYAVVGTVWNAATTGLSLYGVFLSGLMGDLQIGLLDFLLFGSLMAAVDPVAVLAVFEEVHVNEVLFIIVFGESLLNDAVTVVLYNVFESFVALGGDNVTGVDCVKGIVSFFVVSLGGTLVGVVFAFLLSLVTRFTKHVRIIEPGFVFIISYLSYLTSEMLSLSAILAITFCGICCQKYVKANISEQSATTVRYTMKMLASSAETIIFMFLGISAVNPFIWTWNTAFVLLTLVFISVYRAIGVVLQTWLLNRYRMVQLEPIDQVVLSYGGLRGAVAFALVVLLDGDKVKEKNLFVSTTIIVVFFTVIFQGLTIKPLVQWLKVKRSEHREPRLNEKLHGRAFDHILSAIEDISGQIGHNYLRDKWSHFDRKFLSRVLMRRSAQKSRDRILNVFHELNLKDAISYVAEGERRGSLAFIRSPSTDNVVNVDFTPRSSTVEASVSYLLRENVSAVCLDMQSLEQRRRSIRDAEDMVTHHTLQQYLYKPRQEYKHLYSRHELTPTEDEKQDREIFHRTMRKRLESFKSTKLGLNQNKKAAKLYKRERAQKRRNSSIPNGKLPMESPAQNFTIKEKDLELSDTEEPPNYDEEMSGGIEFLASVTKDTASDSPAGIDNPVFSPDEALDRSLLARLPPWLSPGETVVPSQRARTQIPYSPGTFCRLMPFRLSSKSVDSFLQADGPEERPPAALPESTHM", "test": "NHE3 inhibition test (recovery of intracellular pH in cell line stably expressing human NHE3)", "format": "cell-based", "conditions": "OK cells deficient in endogenous NHE stably expressing human NHE3; BCECF fluorescence, initial rate of pH recovery; read-out: human NHE3 inhibitory activity IC50", "procedure,_shortened": "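Opossum kidney cells lacking endogenous NHE, stably expressing human NHE3, loaded with BCECF-AM and acid-loaded by NH4Cl washout. Compound in Na-free buffer, then Na-containing buffer (pH 7.4) added; initial pH-recovery rate by BCECF fluorescence, IC50 versus no-compound recovery.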"}, "SD rat": {"system": "SD rat", "test": "32P-phosphate oral loading test using SD rat (phosphorus absorption inhibitory effect)", "format": "in vivo", "conditions": "Rattus norvegicus, 0.5 h, SD male rats, plasma radioactivity 30 minutes after 32P-phosphate solution, vs control group, read-out: Rate of inhibition of phosphate absorption; for inhibition in vivo at 3 mg/kg: oral dose 3 mg/kg", "procedure,_shortened": "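Male 8-week-old SD rats were dosed orally at 5 ml/kg with compound at 0.2 mg/mL or 0.6 mg/mL in water, then 5 min later given 32P-phosphate in 1.3 mM NaH2PO4 (5 ml/kg). Plasma radioactivity at 30 minutes was counted by liquid scintillation; inhibition (%) was calculated relative to the water-dosed control group.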"}},
  "note": "Structures can show the parent of a compound that is named as a salt.",
  "data": [
    {"smiles": "CN1Cc2c(Cl)cc(Cl)cc2[C@H](c2cccc(-c3cn(CCOCCOCCOCCOCCOCCNC(=O)Nc4ccc(NC(=O)NCCOCCOCCOCCOCCOCCn5cc(-c6cccc([C@@H]7CN(C)Cc8c(Cl)cc(Cl)cc87)c6)nn5)cc4)nn3)c2)C1", "note": "[Example 7-46, 1,1′-Benzene-1,4-diylbis {3-[17-(4-{3-[(4S)-6,8-dichloro-2-methyl-1,2,3,4-tetrahydroisoquinolin-4-yl]phenyl}-1H-1,2,3-triazol-1-yl)-3,6,9,12,15-pentaoxaheptadec-1-yl]urea}hydrochloride]", "values": [
      {"measurement": "IC50", "setting": "human NHE3", "value": 10.9, "unit": "nM"},
      {"measurement": "inhibition in vivo at 3 mg/kg", "setting": "SD rat", "value": 23, "unit": "%"}
    ]},
    {"smiles": "CN1Cc2c(Cl)cc(Cl)cc2[C@H](c2cccc(-c3cncc(NCCOCCOCCNC(=O)CCC(=O)NCCOCCOCCNc4cncc(-c5cccc([C@@H]6CN(C)Cc7c(Cl)cc(Cl)cc76)c5)n4)n3)c2)C1", "note": "[Example 8-6, N,N′-Bis[2-(2-{2-[(6-{3-[(4S)-6,8-dichloro-2-methyl-1,2,3,4-tetrahydroisoquinolin-4-yl]phenyl}pyrazin-2-yl)amino]ethoxy}ethoxy)ethyl]butanediamide pentahydrochloride]", "values": [
      {"measurement": "IC50", "setting": "human NHE3", "value": 15.5, "unit": "nM"},
      {"measurement": "inhibition in vivo at 3 mg/kg", "setting": "SD rat", "value": 26, "unit": "%"}
    ]},
    {"smiles": "CN1Cc2c(Cl)cc(Cl)cc2[C@H](c2cccc(-c3cc(NCCOCCOCCNC(=O)[C@H](O)[C@@H](O)C(=O)NCCOCCOCCNc4cc(-c5cccc([C@@H]6CN(C)Cc7c(Cl)cc(Cl)cc76)c5)ncn4)ncn3)c2)C1", "note": "[Example 8-8, (2R,3R)-N,N′-Bis[2-(2-{2-[(6-{3-[(4S)-6,8-dichloro-2-methyl-1,2,3,4-tetrahydroisoquinolin-4-yl]phenyl}pyrimidin-4-yl)amino]ethoxy}ethoxy)ethyl]-2,3-dihydroxybutanediamide hydrochloride]", "values": [
      {"measurement": "IC50", "setting": "human NHE3", "value": 6.2, "unit": "nM"},
      {"measurement": "inhibition in vivo at 3 mg/kg", "setting": "SD rat", "value": 39, "unit": "%"}
    ]},
    {"smiles": "CN1Cc2c(Cl)cc(Cl)cc2[C@H](c2cccc(-c3cc(NCCOCCOCCOCCNC(=O)CCC(=O)NCCOCCOCCOCCNc4cc(-c5cccc([C@@H]6CN(C)Cc7c(Cl)cc(Cl)cc76)c5)ncn4)ncn3)c2)C1", "note": "[Example 8-12, N,N′-Bis{2-[2-(2-{2-[(6-{3-[(4S)-6,8-dichloro-2-methyl-1,2,3,4-tetrahydroisoquinolin-4-yl]phenyl}pyrimidin-4-yl)amino]ethoxy}ethoxy)ethoxy]ethyl}butanediamide hydrochloride]", "values": [
      {"measurement": "IC50", "setting": "human NHE3", "value": 6.2, "unit": "nM"},
      {"measurement": "inhibition in vivo at 3 mg/kg", "setting": "SD rat", "value": 6, "unit": "%"}
    ]},
    {"smiles": "CN1Cc2c(Cl)cc(Cl)cc2C(c2cccc(-c3cnnc(NCCOCCOCCNC(=O)C(O)C(O)C(=O)NCCOCCOCCNc4cc(-c5cccc(C6CN(C)Cc7c(Cl)cc(Cl)cc76)c5)cnn4)c3)c2)C1", "note": "[Example 8-14, (2R,3R)-N-[2-(2-{2-[(5-{3-[(4R)-6,8-Dichloro-2-methyl-1,2,3,4-tetrahydroisoquinolin-4-yl]phenyl}pyridazin-3-yl)amino]ethoxy}ethoxy)ethyl]-N′-[2-(2-{2-[(5-{3-[(4S)-6,8-dichloro-2-methyl-1,2,3,4-tetrahydroisoquinolin-4-yl]phenyl}pyridazin-3-yl)amino]ethoxy}ethoxy)ethyl]-2,3-dihydroxybutanamide tetrahydrochloride]", "values": [
      {"measurement": "IC50", "setting": "human NHE3", "value": 9.1, "unit": "nM"},
      {"measurement": "inhibition in vivo at 1 mg/kg", "setting": "SD rat; oral dose 1 mg/kg", "value": 46, "unit": "%"}
    ]},
    {"smiles": "CN1Cc2c(Cl)cc(Cl)cc2[C@H](c2cccc(-c3cc(OCCOCCOCCNC(=O)[C@H](O)[C@@H](O)C(=O)NCCOCCOCCOc4cc(-c5cccc([C@@H]6CN(C)Cc7c(Cl)cc(Cl)cc76)c5)ncn4)ncn3)c2)C1", "note": "[Example 8-16, (2R,3R)-N,N′-Bis[2-(2-{2-[(6-{3-[(4S)-6,8-dichloro-2-methyl-1,2,3,4-tetrahydroisoquinolin-4-yl]phenyl}pyrimidin-4-yl)oxy]ethoxy}ethoxy)ethyl]-2,3-dihydroxybutanediamide hydrochloride]", "values": [
      {"measurement": "IC50", "setting": "human NHE3", "value": 7.6, "unit": "nM"},
      {"measurement": "inhibition in vivo at 3 mg/kg", "setting": "SD rat", "value": 31, "unit": "%"}
    ]},
    {"smiles": "CN1Cc2c(Cl)cc(Cl)cc2[C@H](c2cccc(-c3cc(OCCOCCOCCOCCNC(=O)[C@H](O)[C@@H](O)C(=O)NCCOCCOCCOCCOc4cc(-c5cccc([C@@H]6CN(C)Cc7c(Cl)cc(Cl)cc76)c5)ncn4)ncn3)c2)C1", "note": "[Example 8-17, (2R,3R)-N,N′-Bis{2-[2-(2-{2-[(6-{3-[(4S)-6,8-dichloro-2-methyl-1,2,3,4-tetrahydroisoquinolin-4-yl]phenyl}pyrimidin-4-yl)oxy]ethoxy}ethoxy)ethoxy]ethyl}-2,3-dihydroxybutanediamide hydrochloride]", "values": [
      {"measurement": "IC50", "setting": "human NHE3", "value": 2.5, "unit": "nM"},
      {"measurement": "inhibition in vivo at 3 mg/kg", "setting": "SD rat", "value": 18, "unit": "%"}
    ]},
    {"smiles": "CN1Cc2c(Cl)cc(Cl)cc2[C@@H](c2cccc(-c3cc(OCCOCCOCCOCCNC(=O)COCC(=O)NCCOCCOCCOCCOc4cc(-c5cccc([C@@H]6CN(C)Cc7c(Cl)cc(Cl)cc76)c5)ncn4)ncn3)c2)C1", "note": "[Example 8-18, 1-[(6-{3-[(4R)-6,8-Dichloro-2-methyl-1,2,3,4-tetrahydroisoquinolin-4-yl]phenyl}pyrimidin-4-yl)oxy]-N-{2-[2-(2-{2-[(6-{3-[(4S)-6,8-dichloro-2-methyl-1,2,3,4-tetrahydroisoquinolin-4-yl]phenyl}pyrimidin-4-yl)oxy]ethoxy}ethoxy)ethoxy]ethyl}-13-oxo-3,6,9,15-tetraoxa-12-azaheptadecan-17-amide hydrochloride]", "values": [
      {"measurement": "IC50", "setting": "human NHE3", "value": 10.7, "unit": "nM"},
      {"measurement": "inhibition in vivo at 3 mg/kg", "setting": "SD rat", "value": 27, "unit": "%"}
    ]},
    {"smiles": "CN1Cc2c(Cl)cc(Cl)cc2[C@H](c2cccc(-c3cncc(NCCOCCOCCOCCNC(=O)[C@H](O)[C@@H](O)C(=O)NCCOCCOCCOCCNc4cncc(-c5cccc([C@@H]6CN(C)Cc7c(Cl)cc(Cl)cc76)c5)n4)n3)c2)C1", "note": "[Example 8-20, (2R,3R)-N,N′-Bis{2-[2-(2-{2-[(6-{3-[(4S)-6,8-dichloro-2-methyl-1,2,3,4-tetrahydroisoquinolin-4-yl]phenyl}pyrazin-2-yl)amino]ethoxy}ethoxy)ethoxy]ethyl}-2,3-dihydroxybutanediamide tetrahydrochloride]", "values": [
      {"measurement": "IC50", "setting": "human NHE3", "value": 3.3, "unit": "nM"},
      {"measurement": "inhibition in vivo at 3 mg/kg", "setting": "SD rat", "value": 37, "unit": "%"}
    ]}
  ]
}
